From patent US10947574B2, “Method for producing fermented carotenoid using carotenoid-producing bacteria obtained by using cobalt-containing culturing medium” (ENEOS CORPORATION, priority 2015, dated 2021)

Test system: Paracoccus zeaxanthinifaciens strain ATCC 21588
Test: Example 7: cobalt concentration series, growth (OD610) and carotenoid levels (HPLC)
Type: cell-based
Method: In the following examples, carotenoids were quantified by high performance liquid chromatography (HPLC) as follows.
Two columns of Inertsil SIL-100A, 5 μm (ϕ4.6 mm×250 mm) (GL Sciences Inc., Japan) were connected together for use as a column. For elution, a mixed solution of n-hexane, tetrahydrofuran and methanol (40:20:1) serving as a mobile phase was passed through the column at a flow rate of 1.0 mL per minute at a constant temperature around room temperature. For measurement, samples were each dissolved in tetrahydrofuran and diluted 100-fold with the mobile phase, and 20 μL aliquots of the resulting dilutions were injected into the column. The column eluates were detected at a wavelength of 470 nm. As a standard for quantification, astaxanthin (SIGMA, Cat. No. A9335) was used. The astaxanthin concentration of the standard solution was determined using the following equation after measuring the absorbance (A) of the standard solution at 477 nm and the area percentage % (B) of the astaxanthin peak in HPLC analysis under the above conditions.
Subsequently, a medium of the following composition (glucose 30 g/L, filtered corn steep liquor 30 g/L, ammonium sulfate 1.5 g/L, potassium dihydrogen phosphate 1.5 g/L, disodium hydrogen phosphate dodecahydrate 3.8 g/L, calcium chloride dihydrate 5.0 g/L, magnesium sulfate heptahydrate 0.7 g/L, iron sulfate heptahydrate 1.0 g/L, silicon-based defoaming agent 0.2 g/L) was dispensed in 7.2 ml volumes into cotton-plugged test tubes having an inner diameter of 18 mm to prepare 9 test tubes containing a test tube medium for production. The ingredients used to prepare the test tube medium for production were obtained from lots where microbial cells had been confirmed not to grow well.
The resulting culture solution was then inoculated in 0.05 ml volumes into the 9 types of test tube media for production having different cobalt concentrations, and cultured under shaking at 28° C. for 4 days at 300 spm.
After being cultured for 4 days, the culture solutions were each measured for microbial cell growth by OD610 and measure for carotenoid levels by HPLC.

[1] = cobalt added 0.00042 μmol/L, total 0.0024 μmol/L
[2] = cobalt added 0.0042 μmol/L, total 0.0062 μmol/L
[3] = cobalt added 0.021 μmol/L, total 0.023 μmol/L
[4] = cobalt added 0.042 μmol/L, total 0.044 μmol/L
[5] = cobalt added 0.42 μmol/L, total 0.42 μmol/L
[6] = cobalt added 4.2 μmol/L, total 4.2 μmol/L
[7] = cobalt added 21 μmol/L, total 21 μmol/L
[8] = cobalt added 42 μmol/L, total 42 μmol/L

SMILES: O.O.O.O.O.O.[Cl-].[Cl-].[Co+2] [Cobalt chloride hexahydrate]
- Carotenoid: Zeaxanthin [1]: 0.6 mg/L
- Carotenoid: β-Carotene [1]: 0.0 mg/L
- Carotenoid: β-Cryptoxanthin [1]: 0.0 mg/L
- OD610 [1]: 2
- Total carotenoid [1]: 0.6 mg/L
- Carotenoid: Zeaxanthin [2]: 2.0 mg/L
- Carotenoid: β-Carotene [2]: 0.2 mg/L
- Carotenoid: β-Cryptoxanthin [2]: 0.1 mg/L
- OD610 [2]: 6
- Total carotenoid [2]: 2.3 mg/L
- Carotenoid: Zeaxanthin [3]: 10.6 mg/L
- Carotenoid: β-Carotene [3]: 0.7 mg/L
- Carotenoid: β-Cryptoxanthin [3]: 0.3 mg/L
- OD610 [3]: 25
- Total carotenoid [3]: 11.6 mg/L
- Carotenoid: Zeaxanthin [4]: 13.6 mg/L
- Carotenoid: β-Carotene [4]: 0.8 mg/L
- Carotenoid: β-Cryptoxanthin [4]: 0.3 mg/L
- OD610 [4]: 29
- Total carotenoid [4]: 14.7 mg/L
- Carotenoid: Zeaxanthin [5]: 13.4 mg/L
- Carotenoid: β-Carotene [5]: 0.7 mg/L
- Carotenoid: β-Cryptoxanthin [5]: 0.3 mg/L
- OD610 [5]: 29
- Total carotenoid [5]: 14.4 mg/L
- Carotenoid: Zeaxanthin [6]: 12.9 mg/L
- Carotenoid: β-Carotene [6]: 0.7 mg/L
- Carotenoid: β-Cryptoxanthin [6]: 0.3 mg/L
- OD610 [6]: 28
- Total carotenoid [6]: 13.9 mg/L
- Carotenoid: Zeaxanthin [7]: 10.8 mg/L
- Carotenoid: β-Carotene [7]: 0.6 mg/L
- Carotenoid: β-Cryptoxanthin [7]: 0.4 mg/L
- OD610 [7]: 24
- Total carotenoid [7]: 11.8 mg/L
- Carotenoid: Zeaxanthin [8]: 6.4 mg/L
- Carotenoid: β-Carotene [8]: 0.3 mg/L
- Carotenoid: β-Cryptoxanthin [8]: 0.3 mg/L
- OD610 [8]: 18
- Total carotenoid [8]: 7.0 mg/L
